# In patent US20240293337A1, “USE OF DOXERCALCIFEROL TO TREAT AND/OR PREVENT UTERINE FIBROIDS OR POLYCYSTIC OVARY SYNDROME” (priority 2023, published 2024):
# Columns and labels:
# [1] = Serum measurements in PDX UF mice (liver enzymes, calcium, AMH); format: in vivo, NOD/SCID mice
# Method: (§1) After xenograft mice undergo intraperitoneal injection of doxercalciferol (300 ng/kg, 3 times per week) or saline for 6 weeks. Body weight is monitored weekly during doxercalciferol treatment. Six weeks after doxercalciferol treatment insulin resistance is assessed using GTT and then mice are anesthetized and blood is collected to measure liver enzyme and AMH levels, ovary tissue is removed for histological analysis, total RNA is extracted for sequencing, and tumor size is measured with a digital caliper.
# Blood is collected from all groups by cardiac exsanguination under isoflurane anesthesia: serum is separated and stored at −80° C. Serum levels are measured for AMH, ALT, and total bilirubin.
# [2] = Glucose tolerance test in PDX UF mice; format: in vivo, NOD/SCID mice; settings: 6 weeks after treatment, vs control
# Method: as §1
# Glucose tolerance testing is performed on PDX UF mice 6 weeks after doxercalciferol treatment. Mice are tested either without fasting or after fasting for 16 h (5 p.m. to 9 a.m.), with free access to drinking water, after which they receive an intra-peritoneal (i.p.) injection of D-glucose (2.0 g/kg body weight). Blood glucose level is measured at 0, 15, 30, 60, 90, and 120 min following glucose injection using a Bayer glucose monitor (Roche Diagnostics Corp, IN, USA).
# [3] = system: H295R cells; assay: Testosterone production in H295R cell conditioned media (ELISA); format: cell-based, human; settings: 24 hours
# Method: H295R cells are subcultured in T75 flasks for 24 hours. Cells are then treated for 24 hours with serum free basal media as a control or doxercalciferol at 1 nM, 10 nM, or 100 nM diluted in basal media (serum-free) at a 1:1 ratio. After the incubation period, cells are imaged and analyzed for morphology and cell count. Cells are then collected for analysis of steroidogenesis-related gene expression. Cell culture media are collected and used for testosterone quantification using ELISA based Testosterone Parameter Assay Kit (R&D system) per the manufacturer's protocol. The testosterone level is quantified using a multimode microplate reader system, Varioskan LUX Multimode Microplate Reader (Thermo Fisher).
# [4] = system: letrozole induced polycystic ovary syndrome (PCOS) mouse models; assay: Histology (H&E) of PCOS mouse tissues; format: in vivo, C57BL/6 mice; settings: after five weeks of treatment
# Method: […] […] Each of these tissues are fixed in 4% paraformaldehyde for further histological analysis. Ovary, uterus, gonadal white fat, kidney, and liver tissue are collected and fixed in 4% paraformaldehyde. Tissue sections are stained with hematoxylin-eosin (H&E). Histological analyses are performed using Asperio ImageScope (Leica Biosystem, Wetzlar, Germany).
# [5] = system: letrozole induced polycystic ovary syndrome (PCOS) mouse models; assay: Breeding experiments in PCOS mice; format: in vivo, C57BL/6 mice
# Method: (§2) Five weeks after placebo or LTZ pellet implantation, mice undergo intraperitoneal injection of doxercalciferol (300 ng/kg) or saline 3 times per week for 6 weeks. Six weeks after doxercalciferol treatment, the mice are anesthetized and ovary, uterus, gonadal white fat, kidney, and liver tissue are collected. Each of these tissues are fixed in 4% paraformaldehyde for further histological analysis.
# After doxercalciferol treatment, 6 mice per group from the PCOS experiments are randomly selected for the breeding experiment. One male C57BL/6 breeder mouse is used for every two female mice. The male and female mice are caged together for 10 days. Mating is determined by the presence of sperm plug in the vagina. The pregnancy rate, required time for pregnancy, average number of pups, total live and dead pups, and mouse pup weight and growth rate at birth and days 5 and 10 postpartum are measured.
# [6] = Body weight in letrozole induced PCOS mouse model; format: in vivo, C57BL/6 mice; settings: 300 ng/kg i.p. 3 times per week for 6 weeks
# Method: 2.5-week-old female C57BL/6 mice (Charles River, MA, USA) are housed in a vivarium for 1 week under specific pathogen-free conditions. The animal experiment protocol for this study is approved, and all animal experiments are performed in compliance with policies and guidelines for use of laboratory animals. At 3.5 weeks of age, mice (n=11/group) are subcutaneously implanted with a placebo or 5 mg letrozole (LTZ) pellet (Innovative Research of America, Sarasota, FL, USA), which provides a constant release of LTZ (50 μg/day). Body weight is monitored weekly before and post-implantation. Body weight and insulin resistance (measured by glucose tolerance test, GTT) are used to monitor development of PCOS characteristics. Five weeks after placebo or LTZ pellet implantation, mice undergo intraperitoneal injection of doxercalciferol (300 ng/kg) or saline 3 times per week for 6 weeks. Six weeks after doxercalciferol treatment, the mice are anesthetized and ovary, uterus, gonadal white fat, kidney, and liver tissue are collected. Each of these tissues are fixed in 4% paraformaldehyde for further histological analysis.
# [7] = Serum chemistry in PCOS mice; format: in vivo, C57BL/6 mice; settings: PCOS mice treated with doxercalciferol, n 7
# Method: as §2
# Blood is collected from all groups by cardiac exsanguination under isoflurane anesthesia: serum is separated and stored at −80° C. Serum chemistry analysis including BUN, ALT, ALP, AST, TBIL, calcium, TP, ALB, and NA+ is performed in University of Chicago Animal Resource Center (UC ARC) with VETSCAN® VS2 Chemistry Analyzer (Zoetis).
# [8] = PCOS mice, 300 ng/kg i.p. 3 times per week for 6 weeks
smiles,measurement,setting,value
C=C1/C(=C\C=C2/CCC[C@]3(C)[C@@H]([C@H](C)/C=C/[C@H](C)C(C)C)CC[C@@H]23)C[C@@H](O)C[C@@H]1O [doxercalciferol],calcium levels vs reference range for NOD CB17-Prkdc^scid/NcrCrl mice,[1],overlap with the reference range
same,"calcium level, Mean",[1]; N 4,11.93
same,ALT level,[1]; vs control,no significant effect
same,AMH serum levels,[1]; vs control,no significant effect
same,AST level,[1]; vs control,no significant effect
same,total bilirubin level,[1]; vs control,no significant effect
same,fasting glucose levels,[2]; fasting 16 h,tends to lower
same,glucose levels,[2]; without fasting,tends to lower
same,Testosterone production,[3]; 1 nM,significantly decreased
same,Testosterone production,[3]; 10 nM,not significantly changed
same,Testosterone production,[3]; 100 nM,significantly decreased
same,kidney and liver histology,[4]; PCOS mice,no significant evidence of tissue damage or inflammation
same,ovary histology (follicles),"[4]; PCOS mice, untreated PCOS mice have numerous cysts",good numbers of follicles
same,"gonad white fat histology, adipocyte size vs untreated PCOS mice",[4],reduced adipocyte size
same,"uterus histology, vs untreated PCOS mice",[4],improved uterine epithelial cell organization
same,"average number of live pups, vs control mice",[5]; [8],no significant difference
same,"average number of live pups, vs untreated PCOS",[5]; [8],increased the average number of live pups
same,required time for pregnancy after introduction to a potential mate,[5]; [8],about 2 weeks
same,pregnancy rate,"[5]; PCOS mice, 300 ng/kg i.p. 3 times per week for 6 weeks (PCOS 20%, control 83.3%)",50%
same,"total number of live pups, vs untreated PCOS","[5]; PCOS mice, 300 ng/kg i.p. 3 times per week for 6 weeks, not to the levels of control mice",increases the total number of live pups
same,"average weight of pups, vs control mice","[5]; pups of treated PCOS mice, 5 days postpartum",significantly lower
same,"average weight of pups, vs control and PCOS","[5]; pups of treated PCOS mice, 10 days postpartum",no significant difference
same,"average weight of pups, vs control mice","[5]; pups of treated PCOS mice, at birth",significantly lower
same,"growth of pups, vs control and PCOS","[5]; pups of treated PCOS mice, at birth, 5 days and 10 days postpartum",no significant difference
same,"mouse body weight after treatment, vs control mice",[6],no significant weight difference
same,"mouse body weight after treatment, vs untreated PCOS mice",[6],PCOS mice weigh significantly more than both control and doxercalciferol treated PCOS mice
same,mouse body weight during treatment,[6]; PCOS mice,lowers PCOS mouse weight
same,"ALB, Mean",[7],3.9 g/dL
same,"ALP, Mean",[7],76 U/L
same,"ALT, Mean",[7],66 U/L
same,"AST, Mean",[7],144 U/L
same,"BUN, Mean",[7],22 mg/dL
same,"CA, Mean",[7],12.9 mg/dL
same,"NA+, Mean",[7],149 mmol/L
same,"TBIL, Mean",[7],0.4 mg/dL
same,"TP, Mean",[7],4.7 g/dL
